Data: patent publication US6583143B2, “CRF receptor antagonists and methods relating thereto” (Neurocrine Biosciences, Inc., priority 2000, dated 2003)

Biological target: T1, human CRF receptors (Homo sapiens, UniProt P34998)
T1 construct: expressed in transfected cells; membrane suspension of stably transfected cells
T1 sequence (P34998 24-415): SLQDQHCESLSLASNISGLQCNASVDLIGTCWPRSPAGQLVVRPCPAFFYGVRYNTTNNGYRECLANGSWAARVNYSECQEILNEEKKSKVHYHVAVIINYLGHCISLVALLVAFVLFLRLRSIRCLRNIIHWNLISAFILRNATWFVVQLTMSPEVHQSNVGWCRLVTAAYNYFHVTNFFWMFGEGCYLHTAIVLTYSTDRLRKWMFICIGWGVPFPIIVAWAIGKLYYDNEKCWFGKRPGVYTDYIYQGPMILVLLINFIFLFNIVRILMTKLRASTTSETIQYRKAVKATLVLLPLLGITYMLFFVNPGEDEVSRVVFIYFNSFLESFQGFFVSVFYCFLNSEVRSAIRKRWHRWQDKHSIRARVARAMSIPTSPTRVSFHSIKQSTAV
Assay: CRF receptor radioligand binding assay (displacement of [125I]tyrosine-ovine CRF)
Settings: CRF receptor binding affinity, assayed by the methods of Example 9
Description: The effectiveness of a compound as a CRF receptor antagonist may be determined by various assay methods. Suitable CRF antagonists of this invention are capable of inhibiting the specific binding of CRF to its receptor and antagonizing activities associated with CRF. A compound of structure (I) may be assessed for activity as a CRF antagonist by one or more generally accepted assays for this purpose, including (but not limited to) the assays disclosed by DeSouza et al. (J. Neuroscience 7:88, 1987) and Battaglia et al. (Synapse 1:572, 1987). […] CRF receptor affinity may be determined by binding studies that measure the ability of a compound to inhibit the binding of a radiolabeled CRF (e.g., [^125I]tyrosine-CRF) to its receptor (e.g., receptors prepared from rat cerebral cortex membranes). […]
The compounds of this invention may be evaluated for binding activity to the CRF receptor by a standard radioligand binding assay as generally described by DeSouza et al. (J. Neurosci. 7:88-100, 1987). […]
More specifically, the binding assay is performed in 1.5 ml Eppendorf tubes using approximately 1×10^6 cells per tube stably transfected with human CRF receptors. […] Following two washes of the pellets, the tubes are cut just above the pellet and monitored in a gamma counter for radioactivity at approximately 80% efficiency. […]

Ki: < 100 nM
Structure (SMILES): CCCC(CCC)N1N=C(C)n2nc(-c3ccc(OC)cc3C)c3nc(C)cc1c32 [Compound 8-3]
